For 13 molecules, IC50 results are on record in patent US8049015B2 (Panmira Pharmaceuticals, LLC, priority 2008, dated 2011).

Molecules are shown by their SMILES. pIC50: −log10 of the molar value.

The target in this experiment is T1, human DP2 receptor (Homo sapiens, UniProt Q9Y5Y4).
T1 construct: expressed in transfected cells
T1 sequence (Q9Y5Y4 1-395): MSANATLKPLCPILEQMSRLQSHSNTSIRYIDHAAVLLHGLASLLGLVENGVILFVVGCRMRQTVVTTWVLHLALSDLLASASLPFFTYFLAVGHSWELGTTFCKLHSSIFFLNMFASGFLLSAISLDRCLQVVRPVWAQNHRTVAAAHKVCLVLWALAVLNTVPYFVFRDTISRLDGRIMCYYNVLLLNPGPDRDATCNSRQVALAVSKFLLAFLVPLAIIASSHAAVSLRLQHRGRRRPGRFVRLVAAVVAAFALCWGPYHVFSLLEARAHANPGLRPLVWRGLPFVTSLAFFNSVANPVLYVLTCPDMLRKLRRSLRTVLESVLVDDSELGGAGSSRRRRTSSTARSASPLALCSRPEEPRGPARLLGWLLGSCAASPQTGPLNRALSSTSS
Put plainly: DP2/CRTH2 binding assay (radioligand binding with [3H]PGD2). The settings on record: [3H]PGD2 binding, membranes of HEK293 cells expressing recombinant human DP2; read-out: hDP2. The procedure:
The ability of a compound to bind to the human DP2 receptor is assessed via a radioligand binding assay using [^3H]PGD2. HEK293 cells stably expressing recombinant human DP2 are resuspended in 10 mM Hepes, 7.4 containing 1 mM DTT, lysed and centrifuged at 75,000×g to pellet the membranes. The membranes are resuspended in 10 mM Hepes, 7.4 containing 1 mM DTT and 10% glycerol to approximately 5 mg protein/ml. Membranes (2-10 μg protein/well) are incubated in 96-well plates with 1 nM [^3H]PGD2 and test compound in Assay Buffer (50 mM Hepes, 10 mM MnCl2, 1 mM EDTA, plus or minus 0.2% human serum albumin, pH 7.4) for 60 minutes at room temperature. The reactions are terminated by rapid filtration through Whatman GF/C glass fibre filter plates. The filter plates were pre-soaked in 0.33% polythylenimine for 30 minutes at room temperature then washed in Wash Buffer (50 mM Hepes, 0.5 M NaCl pH 7.4) prior to harvesting. After harvesting, the filter plates are washed 3 times with 1 ml cold Wash Buffer then dried. Scintillant is then added to the plates and the radioactivity retained on the filters is determined on a Packard TopCount (Perkin Elmer). Specific binding is determined as total radioactive binding minus non-specific binding in the presence of 10 μM PGD2. IC50s were determined using GraphPad prism analysis of drug titration curves.
As for `CCN(Cc1cc(C(=O)O)ccc1-c1cncc(CC(=O)O)c1)C(=O)OCc1ccccc1` [Compound 1, 3-[(N-Benzyloxycarbonyl-N-ethyl-amino)-methyl]-4-(5-carboxymethyl-pyridin-3-yl)-benzoic acid], the pIC50 was above 6.52. In the case of `CCN(Cc1cc(C(=O)O)ccc1-c1cncc(CC(=O)O)c1)C(=O)C1CC1` [Compound 2, 4-(5-Carboxymethyl-pyridin-3-yl)-3-[(N-cyclopropanecarbonyl-N-ethyl-amino)-methyl]-benzoic acid], the pIC50 was above 6.52. To `N#Cc1ccc(-c2cncc(CC(=O)O)c2)c(CN(Cc2ccccc2)C(=O)C2CC2)c1` [Compound 3, (5-{2-[(N-Benzyl-N-cyclopropanecarbonyl-amino)-methyl]-4-cyano-phenyl}-pyridin-3-yl)-acetic acid] belongs above 6.52. For the molecule `O=C(O)Cc1cncc(-c2ccc(-c3nn[nH]n3)cc2CN(Cc2ccccc2)C(=O)C2CC2)c1` [Compound 4, {5-[2-[(N-Benzyl-N-cyclopropanecarbonyl-amino)-methyl]-4-(2H-tetrazol-5-yl)-phenyl]-pyridin-3-yl}-acetic acid], the pIC50 was above 6.52.

Regarding `O=C(O)Cc1cncc(-c2ccc(C(=O)NCc3ccccc3)cc2CN(Cc2ccccc2)C(=O)C2CC2)c1` [Compound 5, (5-{4-Benzylcarbamoyl-2-[(N-benzyl-N-cyclopropanecarbonyl-amino)-methyl]-phenyl}-pyridin-3-yl)-acetic acid], the pIC50 is above 6.52. To `CNC(=O)c1ccc(-c2cncc(CC(=O)O)c2)c(CN(Cc2ccccc2)C(=O)C2CC2)c1` [Compound 6, (5-{2-[(N-Benzyl-N-cyclopropanecarbonyl-amino)-methyl]-4-methylcarbamoyl-phenyl}-pyridin-3-yl)-acetic acid] belongs 6.00 to 6.52. To `CC(C)(C)NC(=O)c1ccc(-c2cncc(CC(=O)O)c2)c(CN(Cc2ccccc2)C(=O)C2CC2)c1` [Compound 7, (5-{2-[(N-Benzyl-N-cyclopropanecarbonyl-amino)-methyl]-4-tert-butylcarbamoyl-phenyl}-pyridin-3-yl)-acetic acid] belongs 6.00 to 6.52. To `CCN(Cc1cc(C(F)(F)F)ccc1-c1cncc(CC(=O)O)c1)C(=O)C1CC1` [Compound 8, (5-{2-[(N-Cyclopropanecarbonyl-N-ethyl-amino)-methyl]-4-trifluoromethyl-phenyl}-pyridin-3-yl)-acetic acid] belongs above 6.52.

Consider `CCN(Cc1cc(C(F)(F)F)ccc1-c1cnc(Cl)c(CC(=O)O)c1)C(=O)C1CC1` [Compound 9, (2-Chloro-5-{2-[(N-cyclopropanecarbonyl-N-ethyl-amino)-methyl]-4-trifluoromethyl-phenyl}-pyridin-3-yl)-acetic acid], for which the pIC50 is 6.00 to 6.52. To `CCN(Cc1cc(C(F)(F)F)ccc1-c1cc(CC(=O)O)cnc1OC)C(=O)C1CC1` [Compound 10, (5-{2-[(N-Cyclopropanecarbonyl-N-ethyl-amino)-methyl]-4-trifluoromethyl-phenyl}-6-methoxy-pyridin-3-yl)-acetic acid] belongs above 6.52; to `CCN(Cc1cc(C(F)(F)F)ccc1-c1cc(CC(=O)O)cnc1Cl)C(=O)C1CC1` [Compound 11, (6-Chloro-5-{2-[(N-cyclopropanecarbonyl-N-ethyl-amino)-methyl]-4-trifluoromethyl-phenyl}-pyridin-3-yl)-acetic acid], 6.00 to 6.52.

For the molecule `CCN(Cc1cc(C(F)(F)F)ccc1-c1cncc(CC(=O)O)c1)C(=O)OCc1ccccc1` [Compound 12, (5-{2-[(N-Benzyloxycarbonyl-N-ethyl-amino)-methyl]-4-trifluoromethyl-phenyl}-pyridin-3-yl)-acetic acid], the pIC50 is above 6.52. To `CCN(Cc1cc(C(F)(F)F)ccc1-c1cncc(CC(=O)O)c1)C(=O)OC(C)(C)C` [Compound 13, (5-{2-[(N-tert-Butoxycarbonyl-N-ethyl-amino)-methyl]-4-trifluoromethyl-phenyl}-pyridin-3-yl)-acetic acid] belongs above 6.52.
